Measured values published in the Kinase Knowledgebase extract (Sharma et al. 2016).

Columns and labels:
EGFR = EGFR (UniProt P00533); conditions: for inhibition: concentration not given here
EGFR (Hamster) = EGFR (Hamster) (UniProt P00533); conditions: for IC50: er22; for inhibition: er22, dose or concentration not given here
Chain of EGFR (Hamster) (P00533 whole entry, looked up): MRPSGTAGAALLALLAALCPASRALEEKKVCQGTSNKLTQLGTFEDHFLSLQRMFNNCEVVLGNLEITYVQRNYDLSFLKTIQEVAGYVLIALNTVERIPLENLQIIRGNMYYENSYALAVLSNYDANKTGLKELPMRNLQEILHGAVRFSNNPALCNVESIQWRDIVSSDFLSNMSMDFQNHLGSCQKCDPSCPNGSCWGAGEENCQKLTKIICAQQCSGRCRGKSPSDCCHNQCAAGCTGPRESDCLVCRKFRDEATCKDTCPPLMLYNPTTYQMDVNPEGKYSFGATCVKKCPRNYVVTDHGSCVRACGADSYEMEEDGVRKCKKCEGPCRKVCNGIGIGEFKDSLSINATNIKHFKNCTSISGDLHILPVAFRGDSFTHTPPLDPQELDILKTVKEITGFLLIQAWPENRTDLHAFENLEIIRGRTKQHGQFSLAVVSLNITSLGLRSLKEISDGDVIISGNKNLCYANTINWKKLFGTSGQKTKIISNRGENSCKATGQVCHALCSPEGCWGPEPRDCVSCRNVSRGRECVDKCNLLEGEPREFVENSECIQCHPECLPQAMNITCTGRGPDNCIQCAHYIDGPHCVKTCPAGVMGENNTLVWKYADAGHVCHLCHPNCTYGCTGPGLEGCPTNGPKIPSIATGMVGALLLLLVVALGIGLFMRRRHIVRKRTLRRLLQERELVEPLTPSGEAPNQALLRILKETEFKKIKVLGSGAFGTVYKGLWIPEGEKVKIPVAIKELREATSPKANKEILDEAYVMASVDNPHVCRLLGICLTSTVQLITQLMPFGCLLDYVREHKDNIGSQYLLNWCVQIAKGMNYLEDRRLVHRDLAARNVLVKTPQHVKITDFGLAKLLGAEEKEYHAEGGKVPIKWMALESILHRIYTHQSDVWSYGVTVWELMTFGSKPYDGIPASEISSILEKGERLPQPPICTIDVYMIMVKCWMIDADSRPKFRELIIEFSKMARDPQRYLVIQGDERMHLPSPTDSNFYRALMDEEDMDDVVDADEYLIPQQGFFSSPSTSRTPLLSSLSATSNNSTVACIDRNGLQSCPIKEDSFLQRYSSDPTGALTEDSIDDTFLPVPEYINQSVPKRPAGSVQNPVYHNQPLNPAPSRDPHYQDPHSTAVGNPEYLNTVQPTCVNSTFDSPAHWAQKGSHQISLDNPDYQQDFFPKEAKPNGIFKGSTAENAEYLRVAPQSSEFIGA

Chain of EGFR (P00533 whole entry, looked up): as above

Structure (SMILES)	IC50 (EGFR (Hamster)) [µM]	inhibition (EGFR) [%]	inhibition (EGFR (Hamster)) [%]	further results
O=C(Oc1ccc2ccccc2c1)c1cc(NCc2cc(O)ccc2O)ccc1O				IC100 (EGFR): 0.09 µM
CC(C)(C)OC(=O)c1cc(N=Cc2cc(O)ccc2O)ccc1O	> 10			
CCCCCCCCCCCCCCCCOC(=O)c1cc(NCc2cc(O)ccc2O)ccc1O		0	0	
CC(COC(=O)c1cc(N=Cc2cc(O)ccc2O)ccc1O)CC(C)(C)C (configuration not stated)		0		
O=C(Cc1cc(N=Cc2cc(O)ccc2O)ccc1O)NOCc1ccccc1			61	
O=C(OCCC1[C@H]2C[C@@H]3C[C@@H](C[C@H]1C3)C2)c1cc(NCc2cc(O)ccc2O)ccc1O (some centres not stated)	1.25	0		IC50 (EGFR): > 5 µM

More lines, main results first:

IC50 (EGFR (Hamster)) [µM]	inhibition (EGFR) [%]	Structure (SMILES)	inhibition (EGFR (Hamster)) [%]	further results
> 100		CONC(=O)c1cc(N=Cc2cc(O)ccc2O)ccc1O		
> 5		O=C(Oc1cccc(O)c1)c1cc(NCc2cc(O)ccc2O)ccc1O	0	
	0	CC(CCOC(=O)c1cc(NCc2cc(O)ccc2O)ccc1O)CC(C)(C)C (configuration not stated)		
> 20		CC(C)(C)ONC(=O)c1cc(N=Cc2cc(O)ccc2O)ccc1O	0	
> 2		CC(C)(C)CCOC(=O)c1cc(N=Cc2cc(O)ccc2O)ccc1O	0	
